In patent US5530097A, “Human cancer inhibitory peptide amides” (Arizona Board of Regents acting on behalf of Arizona State …, priority 1994, dated 1996):

Experiments:
Format in all cases: cell-based
PS-388 = PS-388 mouse leukemia cell line test; conditions: Mouse Leukemia PS-388
Method: (§1) ED50 (P388) and GI50 (HTCL) identify the drug dose which reduces the percent tumor/cell growth to 50%. There is no mathematical difference between ED50 and GI50, both of which are calculated using the same formula. The only difference is historical usage.
(§2) Each drug is tested at five (5) doses: 100--10-1-0.1--0.01 μg/mL. Percent Growths are calculated for each dose. The two (or three) doses with growth values above, below, (or near to) 50% growth are used to calculate the ED50 /GI50 values using a linear regression computation. If no dose yields a growth value under 50%, the results are expressed as: ED50 >(highest dose). If no dose yields growth higher than 50% growth, then ED50 <(lowest dose). Similar calculations are performed for the TGI at 0% growth, and at -50% growth for the LC50.
(§3) At the start of each experiment, cells from the in vitro cell cultures are inoculated into the appropriate tubes or microtiter plates. One set of control tubes/plates is immediately counted to determine the number of cells at the start of the experiment. This is the "baseline count", or "Tzero reading". At the end of the experiment (48 hrs later), a second set of control tubes/plates is analyzed to determine the "Control Growth" value. The growth (or death) of cells relative to the initial quantity of cells is used to define the "Percent of Growth."
(§4) Similarly, the compounds disclosed herein have also been tested against an NCI in vitro mini panel. For each of six cell lines GI50, TGI, and LC50 amounts were calculated for each compound. Each compound was also tested against the PS-388 cell line and for this test an ED50 was calculated.
(§5) The protocols followed, for the NCI minipanel are, except for the number of cell lines, those established by M. R. Boyd Ph.D., and well known to those of ordinary skill in the art. The procedure followed for the test against PS-388 Leukemia is the same that was followed in the superseded NCI P-388 screening test, which is also well known to those having ordinary skill in the art.

SF-295 = test: NCI in vitro mini panel, human cancer cell line growth inhibition; conditions: CNS SF-295, 48 hrs
Method: as §1
(§6) TGI, means "Total Growth Inhibition", and identifies the drug dose needed to yield zero percent growth, i.e. there are just as many cells at the end of the experiment as were present at the beginning. Whether just as many cells were killed as were produced (steady state), or no growth occurred (total inhibition) cannot be distinguished.
(§7) LC50, means "Lethal Concentration 50%", and identifies the drug concentration which reduces to one-half of the cells originally present at the beginning of the experiment.
as §2, §3, §4, §5

OVCAR-3 = test: as above; conditions: Ovarian OVCAR-3, 48 hrs
Method: as §1, §6, §7, §2, §3, §4, §5

SK-MEL-5 = test: as above; conditions: Melanoma SK-MEL-5, 48 hrs
Method: as §1, §6, §7, §2, §3, §4, §5

NCI-H460 = test: as above; conditions: Lung-NSC NCI-H460, 48 hrs
Method: as §1, §6, §7, §2, §3, §4, §5

A498 = test: as above; conditions: Renal A498, 48 hrs
Method: as §1, §6, §7, §2, §3, §4, §5

KM20L2 = test: as above; conditions: Colon KM20L2, 48 hrs
Method: as §1, §6, §7, §2, §3, §4, §5

Substance	ED-50 (PS-388) [µg/mL]	GI-50 (SF-295) [µg/mL]	LC-50 (SF-295) [µg/mL]	TGI (SF-295) [µg/mL]	GI-50 (OVCAR-3) [µg/mL]	LC-50 (OVCAR-3) [µg/mL]	TGI (OVCAR-3) [µg/mL]	GI-50 (SK-MEL-5) [µg/mL]	LC-50 (SK-MEL-5) [µg/mL]	TGI (SK-MEL-5) [µg/mL]	GI-50 (NCI-H460) [µg/mL]	LC-50 (NCI-H460) [µg/mL]	TGI (NCI-H460) [µg/mL]	GI-50 (A498) [µg/mL]	LC-50 (A498) [µg/mL]	TGI (A498) [µg/mL]	GI-50 (KM20L2) [µg/mL]	LC-50 (KM20L2) [µg/mL]	TGI (KM20L2) [µg/mL]
L-Dolavalyl-L-Leucyl-N-methyl-(3R,4S,5S)-Dolaisoleuinyl-(2R,3R,4S)-Dolaproinyl-Dolaphenine [10a]	0.0000312	0.00027	> 0.01	> 0.01	0.000031	> 0.01	0.00051	0.000058	> 0.01	> 0.01	0.00022	> 0.01	0.0007	0.00026	> 0.01	0.0063	0.000034	> 0.01	0.001
L-Dolavalyl-L-Leucyl-N-methyl-(3R,4S,5S)-Dolaisoleuinyl-(2R,3R,4S)-Dolaproinyl-L-Methionine N-2-benzothiazolamide [8e]	0.000839	0.0036	> 0.01	> 0.01	0.00008	> 0.01	0.0029	0.000051	> 0.01	> 0.01	0.0032	> 0.01	> 0.01	0.00087	> 0.01	> 0.01	0.00034	> 0.01	> 0.01
L-Dolavalyl-L-Leucyl-N-methyl-(3R,4S,5S)-Dolaisoleuinyl-(2R,3R,4S)-Dolaproinyl-L-Methionine N-2-chlorophenylamide [8a]	0.00256	0.0034	> 0.01	> 0.01	0.00047	> 0.01	0.005	0.042	> 0.01	> 0.01	0.0028	> 0.01	0.0079	0.0037	> 0.01	> 0.01	0.0018	> 0.01	> 0.01
L-Dolavalyl-L-Leucyl-N-methyl-(3R,4S,5S)-Dolaisoleuinyl-(2R,3R,4S)-Dolaproinyl-L-Methionine N-3-quinolinamide [8g]	0.000271	0.00041	> 0.01	> 0.01	< 0.000006	> 0.01	0.001	< 0.000006	> 0.01	> 0.01	0.00032	> 0.01	0.0012	0.00026	> 0.01	> 0.01	0.000019	> 0.01	0.0012
L-Dolavalyl-L-Leucyl-N-methyl-(3R,4S,5S)-Dolaisoleuinyl-(2R,3R,4S)-Dolaproinyl-L-Methionine N-4-chlorophenylamide [8b]	0.000434	0.0029	> 0.01	> 0.01	0.000031	> 0.01	0.0016	0.000018	> 0.01	> 0.01	0.003	> 0.01	0.009	0.00045	> 0.01	> 0.01	0.00028	> 0.01	> 0.01
L-Dolavalyl-L-Leucyl-N-methyl-(3R,4S,5S)-Dolaisoleuinyl-(2R,3R,4S)-Dolaproinyl-L-Phenylalanine N-3-chlorophenylamide [8c]	0.0000371	0.00088	> 0.01	> 0.01	0.000064	> 0.01	0.0011	0.000042	> 0.01	0.00074	0.0017	> 0.01	0.0054	0.00042	> 0.01	> 0.01	0.00021	> 0.01	0.0012
L-Dolavalyl-L-Leucyl-N-methyl-(3R,4S,5S)-Dolaisoleuinyl-(2R,3R,4S)-Dolaproinyl-L-Phenylalanine N-4-chlorophenylamide [8d]	0.0000025	0.00034	> 0.01	> 0.01	0.0000085	> 0.01	0.00023	0.0000051	> 0.01	> 0.01	0.00032	> 0.01	0.0011	0.00018	> 0.01	0.0038	0.000015	> 0.01	0.0012
L-Dolavalyl-L-Leucyl-N-methyl-(3R,4S,5S)-Dolaisoleuinyl-(2R,3R,4S)-Dolaproinyl-L-Proline N-2-benzothiazolamide [8f]	0.00405	> 0.01	> 0.01	> 0.01	0.0033	> 0.01	> 0.01	0.0043	> 0.01	> 0.01	> 0.01	> 0.01	> 0.01	> 0.01	> 0.01	> 0.01	0.0074	> 0.01	> 0.01
L-Dolavalyl-L-Leucyl-N-methyl-(3R,4S,5S)-Dolaisoleuinyl-(2R,3R,4S)-Dolaproinyl-N-2(2-chlorophenyl) ethylamide [10b]	0.000357	0.00042	> 0.01	> 0.01	0.00031	> 0.01	0.0012	0.00043	> 0.01	> 0.01	0.00033	> 0.01	0.0014	0.00069	> 0.01	> 0.01	0.00031	> 0.01	0.0013
